Laboratory results taken from patent publication US7888332B2, “Hydrazide-containing CFTR inhibitor compounds and uses thereof” (The Regents of the University of California, priority 2004, dated 2011).

Tests used:
[1] = biological target: T1, CFTR (cAMP-stimulated short-circuit current) in T84 cells (Homo sapiens, UniProt P13569); assay: Short-circuit current in non-permeabilized T84 cells; assay type: cell-based
T1 construct: endogenous in cells; host or cells: T84 colon epithelial cells
Description: (§1) The efficacy of GlyH-101 in inhibiting cAMP/cholera toxin-induced intestinal fluid secretion was also evaluated. Short-circuit current experiments were done in different cell types and in intact mouse ileum under non-permeabilized conditions and in the absence of a Cl^− gradient. In each case CFTR was activated by CPT-cAMP after ENaC inhibition by amiloride. […] Inhibition was ˜100% at higher GlyH-101 concentrations. Cholera toxin-induced intestinal fluid secretion was measured in an in vivo closed-loop model in which loops for each mouse were injected with saline (control), cholera toxin (1 μg), or cholera toxin (1 μg)+GlyH-101 (0.25 μg). GlyH-101 was added to the lumen (rather than systemically) based on initial studies showing poor intestinal absorption and little effect of systemically administered compound. Compared to the saline control, the cholera toxin-induced increase in fluid secretion over 4 hours, quantified from loop weight-to-length ratio, was 80% reduced by GlyH-101.

[2] = biological target: T2, CFTR (cAMP-stimulated short-circuit current) in human airway cells (Homo sapiens, UniProt P13569); assay: Short-circuit current in human airway (primary human bronchial) cells; assay type: cell-based; settings: primary human bronchial cell cultures
T2 construct: endogenous in cells; host or cells: primary human bronchial epithelial cell cultures
T2 sequence (P13569 whole entry): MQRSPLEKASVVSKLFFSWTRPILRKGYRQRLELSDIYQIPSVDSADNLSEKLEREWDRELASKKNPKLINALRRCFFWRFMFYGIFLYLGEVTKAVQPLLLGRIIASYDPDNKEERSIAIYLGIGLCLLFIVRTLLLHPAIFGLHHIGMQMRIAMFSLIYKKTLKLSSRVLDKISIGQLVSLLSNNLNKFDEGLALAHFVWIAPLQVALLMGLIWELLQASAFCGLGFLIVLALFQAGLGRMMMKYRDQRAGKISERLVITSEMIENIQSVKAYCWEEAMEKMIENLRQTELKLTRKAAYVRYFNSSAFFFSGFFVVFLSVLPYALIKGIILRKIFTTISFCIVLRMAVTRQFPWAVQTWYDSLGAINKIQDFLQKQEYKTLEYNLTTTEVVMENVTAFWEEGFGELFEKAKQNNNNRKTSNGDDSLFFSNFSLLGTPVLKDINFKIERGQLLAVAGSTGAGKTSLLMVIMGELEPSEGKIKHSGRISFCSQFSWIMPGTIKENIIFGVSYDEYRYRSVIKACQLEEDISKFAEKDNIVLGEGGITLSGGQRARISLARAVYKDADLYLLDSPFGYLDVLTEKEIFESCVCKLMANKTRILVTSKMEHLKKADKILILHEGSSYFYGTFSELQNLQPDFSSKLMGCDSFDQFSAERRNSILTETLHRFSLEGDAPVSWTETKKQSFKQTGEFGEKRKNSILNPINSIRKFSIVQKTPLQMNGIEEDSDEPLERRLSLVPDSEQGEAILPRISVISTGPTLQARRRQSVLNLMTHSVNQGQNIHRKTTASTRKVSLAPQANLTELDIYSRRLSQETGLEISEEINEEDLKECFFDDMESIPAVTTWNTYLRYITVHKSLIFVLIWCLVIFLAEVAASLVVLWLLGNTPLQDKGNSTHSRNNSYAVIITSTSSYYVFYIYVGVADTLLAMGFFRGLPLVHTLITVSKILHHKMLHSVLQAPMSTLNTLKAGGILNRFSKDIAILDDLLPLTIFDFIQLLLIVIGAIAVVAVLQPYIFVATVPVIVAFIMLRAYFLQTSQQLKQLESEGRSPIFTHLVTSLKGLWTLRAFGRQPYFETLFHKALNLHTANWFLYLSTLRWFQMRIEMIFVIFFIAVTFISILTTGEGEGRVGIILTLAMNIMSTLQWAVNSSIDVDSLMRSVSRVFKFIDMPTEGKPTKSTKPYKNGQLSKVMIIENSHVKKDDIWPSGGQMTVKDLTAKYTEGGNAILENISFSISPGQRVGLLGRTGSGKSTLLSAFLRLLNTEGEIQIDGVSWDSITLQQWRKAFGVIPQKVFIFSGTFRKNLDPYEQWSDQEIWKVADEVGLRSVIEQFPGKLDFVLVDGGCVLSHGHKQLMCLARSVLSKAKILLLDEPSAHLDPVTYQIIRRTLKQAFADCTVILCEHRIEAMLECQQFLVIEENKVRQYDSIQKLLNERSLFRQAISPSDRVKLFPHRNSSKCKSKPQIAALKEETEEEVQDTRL
Description: as §1

[3] = tested on: cholera toxin-induced intestinal fluid secretion; design: species or system mice; settings: mouse, in vivo
CFTR [4] = biological target: T3, CFTR (Homo sapiens, UniProt P13569); assay: Short-circuit current (apical Cl− current) analysis on permeabilized CFTR-expressing FRT cells
T3 sequence (P13569 whole entry): as above

CFTR [5] = biological target: T3, CFTR; assay: Whole-cell patch-clamp on FRT cells expressing CFTR; assay type: cell-based; design: expressed in transfected cells; host or cells: Fisher Rat Thyroid (FRT) cells, stably transfected; settings: for Ki: 5 μM forskolin, read-out: apparent Ki
Description: (§2) Patch-clamp experiments were carried out at room temperature on FRT cells stably expressing wildtype CFTR. Cell-attached and whole-cell configurations were used (Hamill et al., Pflugers Arch. 391:85-100, 1981). The cell membrane was clamped at specified voltages using an EPC-7 patch-clamp amplifier (List Medical). Data were filtered at 500 Hz and digitized at 2000 Hz. For whole-cell experiments the pipette solution contained (in mM): 120 CsCl, 10 TEA-Cl, 0.5 EGTA, 1 MgCl2, 40 mannitol, 10 Cs-HEPES and 3 mM MgATP (pH 7.3). For cell attached experiments EGTA was replaced with 1 mM CaCl2. The bath solution for whole-cell experiments contained (in mM): 150 NaCl, 1 CaCl2, 1 MgCl2, 10 glucose, 10 mannitol, 10 Na-TES (pH 7.4). In cell-attached experiments the bath solution contained (in mM): 130 KCl, 2 NaCl, 2 CaCl2, 2 MgCl2, 10 glucose, 20 mannitol, and 10 K-Hepes (pH 7.3). Inhibitors were applied by extracellular perfusion. CFTR channel activity in cell-attached patches was analyzed as described previously (Taddei et al., FEBS Lett. 558:52-56, 2004).
The mechanism of CFTR block by GlyH-101 was studied using the whole-cell configuration of the patch-clamp technique. After maximal activation of CFTR in stably transfected FRT cells by 5 μM forskolin, current-voltage relationships were measured at GlyH-101 concentrations from 0 to 50 μM. […] Extracellular perfusion with 10 μM GlyH-101 produced an immediate reduction in current that was strongly dependent on membrane potential (FIG. 4A, right panel). At more positive membrane potentials outward positive currents (Cl^− movement into the cell) were reduced compared to inward currents. […] Data for the thiazolidinone 3-[(3-trifluoromethyl)phenyl]-5-[(4-carboxyphenyl)methylene]-2-thioxo-4-thiazolidinone (referred to herein as CFTRinh-172) (5 μM) is shown for comparison. […] FIG. 4C summarizes percentage CFTR current block as a function of GlyH-101 concentration at different membrane voltages.

CFTR [6] = biological target: T3, CFTR; assay: Cell-attached patch-clamp, CFTR single channel activity in FRT cells; assay type: cell-based; design: expressed in transfected cells; host or cells: Fisher Rat Thyroid (FRT) cells, stably transfected; settings: for Mean channel open time: +60 mV
Description: as §2
Cell-attached patch-clamp experiments were carried out to investigate the mechanism of GlyH-101 block of CFTR Cl^− current at the single-channel level. […] In the absence of the inhibitor, mean channel open time was 264±11 ms (SE, n=10). Mean channel open times at +60 mV at 0.4, 1, and 5 μM GlyH-101 were reduced to 181±29, 38±5, and 13±2 ms, respectively (n=5; p<0.01 for all concentrations vs. control).

[7] = CPT-cAMP after amiloride, read-out: Ki for inhibition of cAMP-stimulated short-circuit current

T1 sequence (P13569 whole entry): as above

O=C(CNc1ccc2ccccc2c1)NN=Cc1cc(Br)c(O)c(Br)c1O [GlyH-101, N-2-napthalenyl-[(3,5-dibromo-2,4-dihydroxyphenyl)methylene]glycine hydrazide]
Inhibition at higher concentrations [1]: ~100% | Ki [1, 7]: ~5 µM | Inhibition at higher concentrations [2]: ~100% | Ki [2, 7]: ~5 µM | reduction of cholera toxin-induced increase in fluid secretion (loop weight-to-length ratio) [3]: 80% | % inhibition at 50 μM (CFTR [4]; Table 1, Group I, 50 μM): 95% | Ki (CFTR [4]; Table 1, Group I, concentration giving 50% inhibition of CFTR Cl− conductance): 5 µM | pH dependence of Ki for inhibition of CFTR Cl− current (CFTR [4]; pH range 6-8): independent of pH | Ki (CFTR [4]; read-out: Ki of screening hits, dose-response measurements, confirmed by short-circuit current analysis): ~5 µM | increase of apparent Ki as applied potential varied from +60 to −60 mV (CFTR [5]): approximately four-fold | Hill coefficient nH (CFTR [5]; +20 mV): 0.7 | Ki (CFTR [5]; +20 mV): 3.8 µM | Hill coefficient nH (CFTR [5]; +60 mV): 0.5 | Ki (CFTR [5]; +60 mV): 1.4 µM | current-voltage relationship (CFTR [5]; GlyH-101 at submaximal concentrations, CFTRinh-172 5 μM): inward rectification | Hill coefficient nH (CFTR [5]; −20 mV): 1.3 | Ki (CFTR [5]; −20 mV): 5 µM | Hill coefficient nH (CFTR [5]; −60 mV): 1.8 | Ki (CFTR [5]; −60 mV): 5.6 µM | inhibition of CFTR Cl− conductance at high concentrations (CFTR [5]; ≧30 μM, whole-cell patch-clamp and short-circuit current experiments): fully inhibited | change in single channel conductance (CFTR [6]; 0.4-5 μM): without a change | Mean channel open time (CFTR [6]; 0.4 μM GlyH-101): 181 ± 29 ms | Mean channel open time (CFTR [6]; 1 μM GlyH-101): 38 ± 5 ms | Mean channel open time (CFTR [6]; 5 μM GlyH-101): 13 ± 2 ms
